# Measurements published in publication PMC9295122, “Sialic Acid Derivatives Inhibit SiaT Transporters and Delay Bacterial Growth” (ACS Chemical Biology, 2022).
# Where two headings read alike, the source gives them in different places.
# Legend:
# [1] = Metabolic stability in rat liver microsomes; assay type: in vitro ADME; details: for Metabolic stability in rat microsomes, Exp. 1 / Metabolic stability in rat microsomes, Exp. 2: intrinsic clearance, 1 µM compound; for microsomal CLint at 1 µM: rat liver microsomes, read-out: intrinsic clearance Clint
# Method: The assay was run in a 96-deep well format and solutions were prepared containing microsomes in phosphate buffer. The microsomes employed were from humans, rats, and mice. The reaction was initiated by addition of NADPH after preincubation at 37 °C with test compounds. The reaction was stopped by the addition of acetonitrile (ACN) at six time points (0, 5, 10, 15, 25, and 45 min), the samples were centrifuged, and the supernatant was diluted to determine the loss of compound by LC–MS/MS. Two incubations per compound per species. For further details regarding working concentrations, volumes, and final concentrations at incubation, refer to the supplementary section (Table S6). […]
# Metabolic Metabolic Metabolic stability in stability in stability in Plasma-protein human mouse rat In vitro plasma stability binding by RED
# Assay/compo microsome microsome microsome (% compound remaining after (% unbound und s s s 23 h) compound, (µL/min/m (µL/min/m (µL/min/m average n=2) g protein) g protein) g protein)
# Exp. Exp. Exp. Exp. Exp. Exp. Hum Mou Ra Do Mini Hum Mou Ra […]
# Conc. of W orki ng Vol ume i n Fi nal conc. At sol uti on assay incubation
# 577 m g / m L520 µ L0. […]
# [2] = Plasma stability, human; assay type: in vitro ADME; details: 1 μM, 37 °C
# Method: The reaction was started by the addition of the compound to blank plasma in LC vials after preincubation at 37 °C. The initial compound concentration was 1 μM. The reaction was stopped by the addition of ACN at seven time points (0, 0.5, 1, 2, 4, 6, and 23 h). Time point 0 h was about 15–20 s after spiking the plasma with the compound. The samples were centrifuged and the supernatant diluted and analyzed by LC–MS/MS to determine the % of compound remaining relative to the initial concentration of compound.
# [3] = target: T1, PmSiaT (Proteus mirabilis, UniProt B4EZY7); test: Isothermal titration calorimetry, PmSiaT; assay type: binding
# T1 construct: made in house
# T1 sequence (B4EZY7 1-496): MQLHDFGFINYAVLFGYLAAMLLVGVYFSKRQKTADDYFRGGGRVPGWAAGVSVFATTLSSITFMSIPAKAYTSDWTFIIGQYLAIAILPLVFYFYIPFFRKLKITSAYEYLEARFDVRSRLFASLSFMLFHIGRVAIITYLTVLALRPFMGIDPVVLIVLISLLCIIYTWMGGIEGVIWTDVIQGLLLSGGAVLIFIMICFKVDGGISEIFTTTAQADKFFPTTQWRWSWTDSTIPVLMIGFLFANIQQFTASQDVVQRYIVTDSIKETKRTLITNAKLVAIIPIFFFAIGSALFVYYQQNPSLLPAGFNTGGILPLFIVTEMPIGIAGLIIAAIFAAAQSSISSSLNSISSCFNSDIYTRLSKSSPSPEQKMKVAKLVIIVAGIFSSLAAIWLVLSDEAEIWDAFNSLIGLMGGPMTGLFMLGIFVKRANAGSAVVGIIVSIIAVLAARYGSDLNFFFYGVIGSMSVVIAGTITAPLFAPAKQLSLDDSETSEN
# Method: The binding thermodynamic analysis performed via isothermal titration calorimetry (ITC) provides insights into dissociation constants (Kd) and the binding driving forces of compounds 3a, 3e, and 3f with PmSiaT and SaSiaT.
# Isothermal titration calorimetric experiments were performed on an ITC200 instrument (MicroCal, Northampton, USA) at 25 °C using standard instrument settings (reference power of 6 μcal s^–1, stirring speed of 750 rpm, feedback mode high, and filter period of 2 s). Protein solutions were dialyzed against ITC buffer (50 mM Tris–HCl, 150 mM NaCl, with 0.0174% (w/v) DDM, pH 8.0 at 5 °C) prior to the experiments, and all the samples were prepared using the dialysate buffer to minimize dilution effects. Protein concentrations were determined spectrophotometrically with the specific absorbance at 280 nm employing an extinction coefficient of 76,445 mol^–1 cm^–1 for PmSiaT and 75,750 M^–1 cm^–1 for SaSiaT. […] In a typical experiment, a 0.3–1.0 mM inhibitor solution was titrated to a solution containing 30–50 μM of PmSiaT or 13–20 μM of SaSiaT to ensure >90% saturation. Baseline correction, peak integration, and nonlinear regression analysis of experimental data were performed using the NITPIC (version 1.2.2.)[41] and SEDPHAT (version 12.1b)[42] software packages. The stoichiometry parameter was manually constrained to a value of 1. Experiments were performed in triplicate and the 68% confidence intervals from global fitting of three experiments were calculated as an estimate of the experimental error. All the titration curves can be found in Figures S10–S15.
Compound,"Metabolic stability in rat microsomes, Exp. 1 [1]","Metabolic stability in rat microsomes, Exp. 2 [1]",microsomal CLint at 1 µM [1],In vitro plasma stability (% compound remaining after 23 h) [2],PmSiaT -TΔS° ([3]; ITC),PmSiaT ΔG° ([3]; ITC),PmSiaT ΔH° ([3]; ITC),"Kd ([3]; PmSiaT Kd, ITC, 25 °C)","Kd ([3]; PmSiaT Kd, ITC, Table S4)",affinity increase of binding for PmSiaT ([3]; compared to the natural substrate Neu5Ac),Kd [3]
CC(=O)NC1C(OCc2ccccc2)CC(O)(C(=O)O)OC1C(O)C(O)CO (centres unmarked) [Compound 3a],< 10 µL/min/mg protein,< 10 µL/min/mg protein,< 10 µL/min/mg,100%,-13.9 kcal/mol,-6.91 kcal/mol,7 kcal/mol,9 ± 3.2 µM,8.77 µM,–,–
CC(=O)NC1C(OCc2cc(F)cc(F)c2)CC(O)(C(=O)O)OC1C(O)C(O)CO (centres unmarked) [Compound 3e],< 10 µL/min/mg protein,< 10 µL/min/mg protein,< 10 µL/min/mg,100%,-15.7 kcal/mol,-7.12 kcal/mol,8.58 kcal/mol,6.2 ± 2.8 µM,6.07 µM,–,–
CC(=O)NC1C(OCc2cc(Br)cc(Br)c2)CC(O)(C(=O)O)OC1C(O)C(O)CO (centres unmarked) [Compound 3f],< 10 µL/min/mg protein,< 10 µL/min/mg protein,< 10 µL/min/mg,91%,-17.8 kcal/mol,-8.96 kcal/mol,8.87 kcal/mol,0.27 ± 0.14 µM,0.272 µM,180 fold,–
"CC(=O)N[C@H]1[C@H]([C@H](O)[C@H](O)CO)OC(O)(C(=O)O)C[C@@H]1O (some centres unmarked) [Neu5Ac, 5-N-acetyl neuraminic acid, reference compound]",–,–,–,–,-12.6 kcal/mol,-5.86 kcal/mol,6.72 kcal/mol,–,–,–,50 ± 9 µM
